Results reported in patent US11351185B2, “Use of isovalerylspiramycins as anti-cancer agents to inhibit metastasis” (priority 2020, dated 2022).
Entries after “also recorded” stand apart in the source; their conditions may differ.

Legend:
LN229 and U251 cells = assay: Cell-cycle analysis by flow cytometry (EdU and DAPI), glioblastoma cells; format: cell-based
Description: To assess the cytotoxicity of ISPs I, II and III, five glioblastoma cell lines, T98G, U118, A172, LN229 and U251, were treated with serial doses of each ISP, respectively, for 48 hours. Cell viability of these cell lines were evaluated by CCK8 assay, and the 50% inhibitory concentration (IC50) was calculated (FIG. 2A, B and FIG. 3). […] Cell distribution in each phase of the cell cycle was assessed in LN229 and U251 cells by flow cytometry, followed by EdU and DAPI staining.
For monitoring cell-cycle arrest of ISP I-treated cells, Click-iT EdU Flow Cytometry Assay Kits were used, a product of ThermoFisher Scientific. Cells were co-cultured with EdU at a concentration of 10 μM for 1 hour. After fixation and permeabilization, EdU-positive cells were labeled with Alexa Fluor 647 fluorescein. DAPI also was used for measuring total DNA content to identify differences in cell cycle phases. Data were collected by means of a BD LSRFortessa flow cytometer using FlowJo software. Cells that are positive with EdU and DAPI were in S-Phase of the cell cycle.

[1] = target: T1, SELH (Sec44→Cys44) synthesized in bacteria (Homo sapiens, UniProt Q8IZQ5, U44C); assay: Surface plasmon resonance (SPR) assay, SELH; format: binding; conditions: 25° C.
T1 construct: made in house
T1 sequence (Q8IZQ5 with tags, fused parts or gaps U44C): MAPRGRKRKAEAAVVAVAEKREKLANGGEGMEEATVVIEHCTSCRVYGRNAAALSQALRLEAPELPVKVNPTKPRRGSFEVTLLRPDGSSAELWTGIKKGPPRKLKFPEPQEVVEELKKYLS
Excerpt: Next, the inventors used a thermo-stability assay to confirm SELH was targeted by ISP I in LN229 and 786-O cell lines. The principle of the assay is based on altered protein thermal stabilization/destabilization due to ligand binding in living cells. […] (FIG. 5B and FIG. 6A). To verify further the specificity of ISP I's targeting of SELH, the inventors designed a surface plasmon resonance assay to assess the interaction of ISP I with SELH synthesized in bacteria.
The affinities constant (KD) and kinetics (ka and kd) of ISP I binding to SELH (Sec44→Cys44) were assayed using Biacore 8K (GE Healthcare, Sweden), all at 25° C. […] Coupling conditions were determined by protein isoelectric points. […]
To determine the binding affinity between ISP I and SELH (Sec44→Cys44), a series of ISP I dilutions was analyzed by single-cycle kinetics. […] The ISP I at various gradient concentrations and one zero concentration (running buffer) flowed over the immobilized SELH, with 120 s for binding, followed by disassociation for 120 s, and the obtained response units (RUs) were recorded. The RU values were collected, and the binding affinity data were calculated by kinetic models (1:1 interaction) within Biacore 8K Evaluation Software. The equilibrium dissociation constant (KD) was calculated to evaluate the ability of ISP I to interact with SELH.

U2OS cell line = assay: R-loop and EdU staining in U2OS cells; format: cell-based, Human; conditions: 6 hours
Excerpt: In order to assess ISP I's effect within the nuclear compartment, the inventors evaluated DNA-RNA R-loop formation within ISP I-treated Human Bone Osteosarcoma Epithelial Cells (U2OS cell line). R-loops are DNA-RNA hybrid structures composed of a displaced single-stranded DNA hybridized with the nascent RNA transcript. Santo-Pereira et al., Nat. Rev. Genet. 16: 583 (2015). […] Teng et al., Nature communications 9: 4115 (2018).
U2OS cells obtained from ATCC were transfected with plasmid containing RNaseH1 construct mutated at D210N (Addgene #111904) and WKKD (Addgene #111905). Stable monoclonal cells were selected with hygromycin.
EdU and R-loop staining for U2OS cells was conducted as follows: U2OS cells were incubated with EdU for 20 min and washed with a brief PBS wash. These cells were then pre-extracted in PBS-T buffer (0.2% Triton X-100 in 1×PBS, phenylmethylsulphonylfluoride [PMSF], protease inhibitor cocktail (Sigma, P8340) and phosphatase inhibitor cocktail (Roche, P4906845001)) for 3 min on ice and washed with a brief PBS wash. Pre-extracted cells were fixed using 2.0% paraformaldehyde (PFA) solution in PBS. EdU staining was performed according to the manufacturer's instructions. Primary antibody staining was performed as follows: anti-V5-tag (Santacruz, sc-271926, 1:250 dilution). Secondary antibody staining was performed as follows: Alexa 568 conjugated anti-mouse IgG (1:500, ThermoFisher Scientific). A Zeiss LSM710 confocal microscopy was used for imaging. Images where scored in ZenBlue software by counting non-nucleolar R-loops foci, where nucleoli were masked based on intensity and size of R-loop staining and number of foci counted in the rest of the nucleus.

IOMM tumors = assay: IOMM meningioma subcutaneous xenograft mouse model; format: in vivo, Nude mice; conditions: 35 mg/kg i.p. daily; 18 days after treatment
Description: For subcutaneous xenografts, NSG mice (6-8 weeks old) from the NCI-Frederick animal facility and Jackson Lab (Bar Harbor, Me. USA) were injected with 5×10^6 to 1×10^7 cells subcutaneously in the flank. One week later, the tumor-bearing mice were randomly assigned to different groups and made the tumor volume baseline equivalent and treated with normal saline or Zenomycin (35 mg/kg) everyday intraperitoneally. Tumors were measured using a caliper, and volume was calculated.

[2] = tested on: murine B16 cells (lung metastasis); assay: B16 melanoma lung metastasis mouse model; format: in vivo, C57BL/6 mice; conditions: 35 mg/kg i.p. every day, 12 days; vs saline
Description: In addition to the aforementioned xenograft tumor models, the anti-tumor activity of ISP I was assessed in a metastatic murine melanoma (B16) model.
For metastasis study, C57BL/6 mice (4-5 weeks) from Charles River Laboratories (Wilmington, Mass. USA) were assigned randomly to one or another of two groups, 9 animals per group. B16-F10 mouse skin melanoma cells (2×10^5) were resuspended in 100 μl saline and injected through tail vein. After treatment with ISP I at 35 mg/kg for 12 days, all mice were euthanized, and the lungs were examined for counting black metastasis dots.

[3] = tested on: in vivo cancer parameters; conditions: animal models; cited from earlier work

COC1C(O)CC(=O)OC(C)CC=CC=CC(OC2CCC(N(C)C)C(C)O2)C(C)CC(CC=O)C1OC1OC(C)C(OC2CC(C)(O)C(OC(=O)CC(C)C)C(C)O2)C(N(C)C)C1O (stereo not drawn) [ISP I, 4″-isolvalerylspiramycin I]
cell distribution in cell-cycle phases (LN229 and U251 cells): G0/G1 arrest; also recorded: dose-dependent increase in the G0/G1 phase and a decrease in the S phase
binding to SELH (SPR) [1]: tightly binds to SELH
EdU incorporation (DNA replication) (U2OS cell line): reduced EdU (DNA replication marker) incorporation into DNA in a dose-dependent manner
R-loop formation (U2OS cell line): increased R-loop accumulation
EdU incorporation (DNA replication) (U2OS cell line; listed as ISP 1): reduction in EdU incorporation
R-loop formation (U2OS cell line; listed as ISP 1): increase of R-Loops formation
tumor size, weight and burden (IOMM tumors): reduced IOMM tumor burden; also recorded: significantly reduced tumor size and weight
lung tumor nodules (melanoma spots) [2]: significantly reduced lung tumor nodules
in vivo cancer parameters such as tumor growth rate and relative tumor volume [3]: reduction
